Measurements from US4138496A, “SY-1 substance” (Kaken Chemical Co., Ltd., priority 1977, dated 1979).
In brackets after ≈: the same amount, converted by molar mass.

How the values were obtained:
[1] = tested on: Staphylococcus aureus; assay: Minimum inhibitory concentration; conditions: read-out: Minimum inhibitory concentration
[2] = tested on: Bacillus circulans; assay: Minimum inhibitory concentration; conditions: Paenibacillus illinoisensis, read-out: Minimum inhibitory concentration
[3] = tested on: Mycobacterium phlei; assay: Minimum inhibitory concentration; conditions: Mycolicibacterium phlei, read-out: Minimum inhibitory concentration
Description: (§1) In the Table, N indicates Nutrient agar medium, GN Glycerine nutrient medium and PS Potato-sucrose agar medium.
GN: 4% glycerol nutrient agar

[4] = tested on: Micrococcus luteus; assay: Minimum inhibitory concentration; conditions: read-out: Minimum inhibitory concentration
Description: as §1

[5] = tested on: Staphylococcus epidermidis; assay: Minimum inhibitory concentration; conditions: read-out: Minimum inhibitory concentration
[6] = tested on: Mycobacterium avium; assay: Minimum inhibitory concentration; conditions: read-out: Minimum inhibitory concentration
Description: as §1
GN: 4% glycerol nutrient agar

[7] = tested on: Mycobacterium smegmatis; assay: Minimum inhibitory concentration; conditions: Mycolicibacterium smegmatis, read-out: Minimum inhibitory concentration
Description: as §1
GN: 4% glycerol nutrient agar

[8] = tested on: Klebsiella pneumoniae; assay: Minimum inhibitory concentration; conditions: read-out: Minimum inhibitory concentration
[9] = tested on: Bacillus megaterium; assay: Minimum inhibitory concentration; conditions: Priestia megaterium, read-out: Minimum inhibitory concentration
[10] = tested on: Micrococcus flavus; assay: Minimum inhibitory concentration; conditions: read-out: Minimum inhibitory concentration
[11] = tested on: Proteus vulgaris; assay: Minimum inhibitory concentration; conditions: read-out: Minimum inhibitory concentration
[12] = Solubility
[13] = tested on: Psendomonas aeruginosa; assay: Minimum inhibitory concentration; conditions: read-out: Minimum inhibitory concentration
[14] = tested on: Piricularia oryzae; assay: microbe, parasite or virus in culture; assay type: cell-based; conditions: read-out: Minimum inhibitory concentration
[15] = tested on: Escherichia coli; assay: Minimum inhibitory concentration; conditions: read-out: Minimum inhibitory concentration
[16] = Stability; conditions: Na salt
[17] = tested on: Alternaria kikuchiana; assay: Minimum inhibitory concentration; assay type: cell-based; conditions: PS: potato-sucrose agar, Na salt
[18] = tested on: Bacillus subtilis; assay: Minimum inhibitory concentration; conditions: read-out: Minimum inhibitory concentration
[19] = Toxicity (LD50), mice, orally; conditions: mouse, in vivo, po

SMILES: CCC(C(=O)O)C1CCC(C)C(C(C)C(O)C(C)C(=O)C(CC)C2OC3(C=CCC4(CCC(C)(C5CCC(O)(CC)C(C)O5)O4)O3)C(C)CC2C)O1 (stereo not shown) [SY-1 substance]
- MIC [1]: 100 µg/mL (≈ 136 µM)
- MIC [2]: 12.5 µg/mL (≈ 17 µM)
- MIC [3]: > 100 µg/mL
- MIC [4]: 100 µg/mL (≈ 136 µM)
- MIC [5]: 50 µg/mL (≈ 68 µM)
- MIC [6]: > 100 µg/mL
- MIC [7]: > 100 µg/mL
- MIC [8]: > 100 µg/mL
- MIC [9]: 50 µg/mL (≈ 68 µM)
- MIC [10]: 100 µg/mL (≈ 136 µM)
- MIC [11]: > 100 µg/mL
- Solubility in organic solvents ([12]; alcohols, acetates, chloroform, ether, carbon tetrachloride, benzene and n-hexane, Na salt): soluble
- Solubility in various organic solvents ([12]; general statement for isolation by solvent extraction): soluble in various organic solvents
- Solubility in water ([12]; water, Na salt): insoluble in water
- MIC [13]: > 100 µg/mL
- MIC [14]: > 100 µg/mL
- MIC [15]: > 100 µg/mL
- Stability ([16]; pH 7-9): stable in pH 7-9
- Stability ([16]; pH lower than 6): unstable in pH lower than 6
- MIC [17]: > 100 µg/mL
- MIC [18]: 100 µg/mL (≈ 136 µM)
- LD50 [19]: 51 mg/kg
